Results published in PMC5608406, “In vivo activation of latent HIV with a synthetic bryostatin analog effects both latent cell "kick" and "kill" in strategy for virus eradication” (PLoS Pathogens, 2017).
“Also recorded” adds a separate entry of the source.

Tests used:
U1 cells = experiment: Activation of HIV from latency in U1 cell line (p24 ELISA); format: cell-based; conditions: 48h
Protocol: U1 cells (tested negative for bacteria, mold, yeast, and mycoplasma) were obtained through the AIDS Reagent Program, Division of AIDS, NIAID, NIH from Dr. Thomas Folks. Cells and compound were seeded in a final 200 μL volume of RF10 media at a cell density of 20,000 cells/well in v-bottomed 96 well plates and incubated at 37°C for 48 hours. After incubation, cells were pelleted and supernatant harvested then diluted in a 2% Triton-x-100/phosphate buffered saline solution. The concentration of HIV p24 protein in the culture supernatant was quantified using the HIV p24 antigen enzyme linked immunosorbent assay (ELISA) kit (Beckman Coulter) according to the manufacturer’s instructions.

murine splenocytes = experiment: In vivo bioactivity (CD69/CD25 in splenocytes) in C57/bl6 mice
Protocol: C57/bl6 mice were obtained from the UCLA Department of Radiation Oncology. Compounds were suspended in DMSO and then further diluted in RF10 media to produce a final volume of 500 μL (containing a maximum 4% DMSO). These 500 μL volumes were administered to mice by intraperitoneal injection. Mice were monitored for acute toxicities and then sacrificed at the indicated times. Spleens were removed and disaggregated using a steel mesh, and then filtered through a 40 μm filter to produce a single-cell suspension. The resultant splenocytes were then stained for flow cytometry to analyze surface expression of relevant markers.
During standard flow cytometry staining, samples of 10^5 cells were suspended in 50 μL of a 1:1 dilution of phosphate buffered saline (PBS):Human AB serum (Sigma). Staining of C57/bl6 mouse splenocytes was performed by adding the following anti-mouse fluorescent conjugated antibodies: CD3-Fluorescein isothiocyanate (FITC, eBioscience 11-0032-82); CD69-Phycoerythrin (PE, eBioscience 12-0691-83); and CD4-Allophycocyanin (APC, eBioscience 17-0041-83). In some experiments CD4-APC was replaced with CD25-APC (eBioscience 17-0251-82) and CD4-Phycoerythrin Cyanin 7 (PC7, eBioscience 25-0041-82). For humanized mouse studies, PBMC and splenocytes from BLT mice were stained with anti-mouse CD45-Alexa 700 (Biolegend 103128) and the following anti-human antibodies: CD45-e450 (eBioscience 48-0459-42); CD3-APC-780 (eBioscience; 47-0038-42); CD4-V500 (BD biosciences; 560768); CD8-Peridinin chlorophyll protein (PerCP)-710 (eBioscience 46-0087-42); CD25-PE (Beckman IM0479U); CD69-APC (Biolegend 310910); CD14-PE-Cy7 (Biolegend 325618). Cells were separately stained for anti-human CD45 e450- (eBioscience 48-0459-42) and anti-HA-Biotin PE (Roche 12158167001) followed by a secondary Streptavidin, R-Phycoerythrin Conjugate (Invitrogen s866) stain. This two-step stain was performed by incubating 1-2x10^6 cells at 4°C for 20–30 min, washing with 2% FBS in PBS, then adding the secondary stain, incubating again at 4°C for 20–30 min, and washing with 2% FBS in PBS before fixation with 2% paraformaldehyde. In some experiments, cell death was also evaluated by GHOST Red 780 (Tonbo Biosciences 13–0865) or Zombie Yellow (Biolegend 423104) stains. For this procedure, 10^6 cells were suspended in 100 μL PBS, and then the Zombie yellow and GHOST Red 780 dyes added. Cells were incubated for 20 min at room temperature in the dark and then washed twice with 2% FBS in PBS. Cells were then fixed with 2% paraformaldehyde and incubated for 20 min in the dark. In some experiments cells were then washed with 2% FBS in PBS, resuspended in 1:1 PBS:Human AB serum and then stained for human CD45 and HA, CD3-PE-Cy5 (Biolegend 300310), CD4-ECD (Beckman 6604727), CD8 Per-CO710 (eBioscience 46-0087-42) and CD3-APC (Cell signaling 9602S) as described above.

[1] = system: latent HIV in CD4+ T cells from ART-treated patients; experiment: Activation of HIV from latency in patient-derived CD4+ T cells (virion-associated HIV RNA in supernatant); format: cell-based, human
Source text: Nine HIV-infected individuals receiving ART for a median of 2.6 years (range 0.4–9.1) were studied. All study subjects maintained undetectable levels of plasma viremia (<50 copies/mL) at the time of study (S1 Table).
CD4^+ T cells were isolated from cryopreserved peripheral blood mononuclear cells (PBMCs) using a cell enrichment kit (StemCell Technologies). For patient samples 1–6, resting CD4^+ T cells were further isolated by depleting CD25^+, HLA-DR^+ and CD69^+ CD4^+ cells using PE-conjugated antibodies (BD Biosciences) and anti-PE microbeads (Miltenyi Biotec). CD4^+ T cells were incubated with RPMI 1640-based medium containing antiretroviral drugs consisting of T-20 (100 μg/mL), tenofovir (1 μM), and emtricitabine (1 μM), and test stimuli at concentrations indicated in the figures.
The copy number of virion-associated HIV RNA in the cell culture supernatants was measured using the Cobas Ampliprep/Cobas Taqman HIV-1 Test, Version 2.0 (Roche Diagnostics) following 36–48 hours of incubation of cells with the above study compounds. The limit of detection was 20 copies/mL.

[2] = system: human T cells in BLT mice; experiment: Stimulation of human cells in uninfected humanized BLT mice (CD69, CD25); format: in vivo; conditions: spleen and blood, one day after stimulation
[3] = Plasma cytokine quantification after in vivo administration; conditions: following administration to C57/bl6 mice
Protocol: Quantification of the levels of the murine cytokines IL-2, IL-6, MIP-1-alpha, and TNF-alpha in mouse plasma samples was performed using a custom Milliplex Mouse Cytokine/Chemokine Magnetic Kit (Millipore) according to the manufacturer’s recommendations. Wash steps were performed using a Bio-Plex II Wash Station (Bio-Rad), and the data were acquired using a Bio-Plex 200 System with high-throughput fluidics (Bio-Rad). The resultant data were analyzed using Bio-Plex Manager 6.1 software.

J-Lat 10.6 cell line = system: J-Lat 10.6 cell line; set-up: method as in PMID 22914190; conditions: cited from earlier work
[4] = CD4+ T cells from 3 ART-treated patients, 48h

In the case of `C=C1C[C@H]2C[C@]3(O)O[C@H](C[C@@H](O)CC(=O)O[C@@H](CO)C[C@@H]4C/C(=C\C(=O)OC)[C@H](OC(=O)CCCCCCC)[C@@](O)(O4)C(C)(C)/C=C/[C@@H](C1)O2)C[C@H](OC(C)=O)C3(C)C` [SUW133], the “induction of latent virus (HIV p24 in supernatant)” value (U1 cells) is reported as “induced significant levels of latent virus”, the “CD4+ splenocytes expressing CD69” value (murine splenocytes; intraperitoneal injection, 24h post-injection, maximum over ascending doses) is reported as “over 80%” and the “lowest dose inducing CD69 expression” value (murine splenocytes; intraperitoneal injection, C57/bl6 mice) is reported as 1 µg. For the same compound, the “CD25 expression on CD3+ T cells in spleen” value (murine splenocytes; single injection of 10 μg) was “remained unchanged”, the “CD69 expression on splenocytes, time course” value (murine splenocytes; single injection of 10 μg, up to day 9) was “transient expression of CD69 on the vast majority of murine splenocytes” and the “amount of cell-free virion-associated HIV RNA relative to maximal T cell stimulation (costimulation)” value [1, 4] was “approximately 1/3”. For the same compound, the “virus production compared with other LRAs” value [1, 4] was “significantly outperformed panobinostat, vorinostat, JQ1, and bryostatin 1 treatment”, the “induction of latent virus (cell-free virion-associated viral RNA)” value ([1]; resting CD4+ T cells from 6 aviremic patients, 50 nM, 36h) was “induced significant levels of latent virus” and the “CD25 expression in human T cells” value [2] was “limited CD25 expression”. The “CD69 expression in human T cells” value [2] was “robust activation of CD69”, the “plasma concentration of MIP-1-alpha” value [3] was “no detectable increase” and the “plasma concentration of TNF-alpha” value [3] was “no detectable increase”. The “plasma concentration of interleukin (IL)-2” value [3] was “no detectable increase”, the “plasma IL-6 levels” value ([3]; days 1 to 9) was “only a short-term elevation; also recorded: declined significantly between days 1 and 9 post-injection” and the “induction of HIV from latency” value (J-Lat 10.6 cell line) was “effectively induced HIV from latency”.
